Data reported in article PMC9402538, “Rational design of a sensitivity-enhanced tracer for discovering efficient APC–Asef inhibitors” (Nature Communications, 2022).
Values joined by “and” are separate entries in the source; they are usually repeats but may differ in a detail not shown here. Equal values may be shown once. Read-outs that look alike come from different tables or passages of the source. Where a SMILES comes first, the peptide text is derived from it. [ ]: non-standard residue; d: D form. The star is where a group is joined. Phe(4-tBu) = CC(C)(C)c1ccc(C[C@H](N)C(=O)O)cc1; Bpa = N[C@@H](Cc1ccc(C(=O)c2ccccc2)cc1)C(=O)O; Benzoyl(4-OMe) = COc1ccc(C(=O)*)cc1; 2Furoyl = O=C(c1ccco1)*; X1 = CSc1nccc(C(=O)*)n1

Columns and labels:
[1] = target: T1, APC (Homo sapiens, UniProt P25054); experiment: FP competitive assay using tracer 1; type: binding
T1 sequence (P25054 303-739): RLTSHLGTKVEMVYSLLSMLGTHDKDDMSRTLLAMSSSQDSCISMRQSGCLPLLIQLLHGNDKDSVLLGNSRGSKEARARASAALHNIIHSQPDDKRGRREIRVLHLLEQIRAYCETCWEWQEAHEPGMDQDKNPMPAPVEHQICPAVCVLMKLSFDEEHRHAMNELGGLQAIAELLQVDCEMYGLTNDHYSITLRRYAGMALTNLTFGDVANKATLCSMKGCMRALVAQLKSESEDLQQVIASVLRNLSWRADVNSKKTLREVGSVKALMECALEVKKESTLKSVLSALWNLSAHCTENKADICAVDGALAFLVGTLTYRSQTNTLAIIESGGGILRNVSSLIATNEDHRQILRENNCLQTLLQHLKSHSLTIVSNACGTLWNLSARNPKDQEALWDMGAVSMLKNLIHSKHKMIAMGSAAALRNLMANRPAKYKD
Method: In our previous study, we established an FP assay for screening APC–Asef inhibitors using FITC-labeled tracer 1 (Ac–^176[…][FITC]^195–NH2)[16]. […]. However, their Kd values measured by isothermal titration calorimetry (ITC) actually vary up to more than 20 times[16],[17]. […].
FITC-labeled tracer peptides were obtained from Changzhou Kanglong Biotech Ltd. (Changzhou, Jiangsu, China). […]. The FP signal changes upon tracer binding were measured after 1.5 h of incubation using a Synergy neo microplate reader (BioTek Instruments, Inc.) and plotted against the protein concentration. The corresponding EC50 values were generated by fitting the curves with a nonlinear regression model. […]. To make a working solution, APC (303–739) was diluted in FP buffer (50 mM HEPES, pH 7.5, 300 mM NaCl, 1 mM EDTA, 1 mM DTT). […] The FP signals were measured after 1.5 h of incubation at room temperature using a Synergy neo microplate reader. Three controls were included on each plate, i.e., blank (without protein and tracer), 100% inhibition (free tracer only), and 0% inhibition (protein/tracer complex only) controls. All experiments were performed in triplicate. The IC50 values of peptides were calculated by nonlinear regression analysis using GraphPad Prism 7.0 software.

[2] = target: T2, APC (303–739) (Homo sapiens, UniProt P25054); experiment: FP competitive assay using tracer 7; type: binding
T2 sequence (P25054 303-739): T1 sequence (P25054 303-739)
Method: FITC-labeled tracer peptides were obtained from Changzhou Kanglong Biotech Ltd. (Changzhou, Jiangsu, China). […]. The FP signal changes upon tracer binding were measured after 1.5 h of incubation using a Synergy neo microplate reader (BioTek Instruments, Inc.) and plotted against the protein concentration. The corresponding EC50 values were generated by fitting the curves with a nonlinear regression model. […]. To make a working solution, APC (303–739) was diluted in FP buffer (50 mM HEPES, pH 7.5, 300 mM NaCl, 1 mM EDTA, 1 mM DTT). The diluted APC protein (91 μL) was combined with a serial dilution of peptides (4 μL) and incubated at room temperature for 1 h, followed by the addition of 5 μL of 400 nM tracer 7. The FP signals were measured after 1.5 h of incubation at room temperature using a Synergy neo microplate reader. Three controls were included on each plate, i.e., blank (without protein and tracer), 100% inhibition (free tracer only), and 0% inhibition (protein/tracer complex only) controls. All experiments were performed in triplicate. The IC50 values of peptides were calculated by nonlinear regression analysis using GraphPad Prism 7.0 software.

[3] = Conc. 0.0049 μM, individual repeats, Fig3b
[4] = Conc. 0.0098 μM, individual repeats, Fig3b
[5] = Conc. 0.0195 μM, individual repeats, Fig3b
[6] = Conc. 0.0391 μM, individual repeats, Fig3b
[7] = Conc. 0.0781 μM, individual repeats, Fig3b
[8] = Conc. 0.1563 μM, individual repeats, Fig3b
[9] = Conc. 0.3125 μM, individual repeats, Fig3b
[10] = Conc. 0.625 μM, individual repeats, Fig3b
[11] = Conc. 2.5 μM, individual repeats, Fig3b
[12] = Conc. 5 μM, individual repeats, Fig3b
[13] = Conc. 10 μM, individual repeats, Fig3b
[14] = Conc. 20 μM, individual repeats, Fig3b

CC(C)C[C@H](NC(=O)[C@H](CO)NC(=O)[C@H](CCC(=O)O)NC(=O)CNC(=O)[C@H](C)NC(=O)c1ccco1)C(=O)N[C@@H](Cc1ccc(O)cc1)C(=O)N[C@@H](Cc1ccc(C(=O)c2ccccc2)cc1)C(N)=O [MAI-454] (2Furoyl-AGESLY[Bpa]-NH2)
IC50 [1]: 480 ± 150 nM

CSc1nccc(C(=O)N[C@@H](C)C(=O)NCC(=O)N[C@@H](CCC(=O)O)C(=O)N[C@@H](CO)C(=O)N[C@@H](CC(C)C)C(=O)N[C@@H](Cc2ccc(O)cc2)C(=O)N[C@@H](CCC(=O)O)C(N)=O)n1 [MAI-456] (X1-AGESLYE-NH2)
IC50 ([1]; Supplementary Table 4, read-out: IC50, Tracer 1): 570 ± 120 nM

COc1ccc(C(=O)N[C@@H](C)C(=O)NCC(=O)N[C@@H](CCC(=O)O)C(=O)N[C@@H](CO)C(=O)N[C@@H](CC(C)C)C(=O)N[C@@H](Cc2ccc(O)cc2)C(=O)N[C@@H](Cc2ccc(C(=O)c3ccccc3)cc2)C(N)=O)cc1 [MAI-521] ({Benzoyl(4-OMe)}-AGESLY[Bpa]-NH2)
inhibition at 0.0015 µM ([2]; Conc. 0.0015 μM, individual repeats, Fig3b): 1.5%
%inhibition ([2]; Conc. 0.0024 μM, individual repeats, Fig3b): -0.4% and 2.8%
inhibition at 0.0031 µM ([2]; Conc. 0.0031 μM, individual repeats, Fig3b): 2%
%inhibition [2, 3]: 2.6%
inhibition at 0.0049 µM [2, 3]: 1.8%
inhibition at 0.006 µM ([2]; Conc. 0.006 μM, individual repeats, Fig3b): 3.2%
%inhibition [2, 4]: 10.8%
inhibition at 0.0098 µM [2, 4]: 6.3%
inhibition at 0.012 µM ([2]; Conc. 0.012 μM, individual repeats, Fig3b): 9%
%inhibition [2, 5]: 24.3%
inhibition at 0.0195 µM [2, 5]: 16%
inhibition at 0.024 µM ([2]; Conc. 0.024 μM, individual repeats, Fig3b): 22.1%
%inhibition [2, 6]: 41%
inhibition at 0.0391 µM [2, 6]: 35.5%
inhibition at 0.049 µM ([2]; Conc. 0.049 μM, individual repeats, Fig3b): 39.2%
%inhibition [2, 7]: 60.9%
inhibition at 0.0781 µM [2, 7]: 56.4%
inhibition at 0.098 µM ([2]; Conc. 0.098 μM, individual repeats, Fig3b): 74.8%
%inhibition [2, 8]: 75%
inhibition at 0.1563 µM [2, 8]: 74.4%
inhibition at 0.195 µM ([2]; Conc. 0.195 μM, individual repeats, Fig3b): 77.9%
%inhibition [2, 9]: 86.3%
inhibition at 0.3125 µM [2, 9]: 86%
inhibition at 0.391 µM ([2]; Conc. 0.391 μM, individual repeats, Fig3b): 87.6%
%inhibition [2, 10]: 93.8%
inhibition at 0.625 µM [2, 10]: 92%
inhibition at 0.781 µM ([2]; Conc. 0.781 μM, individual repeats, Fig3b): 92.8%
inhibition at 1.25 µM ([2]; Conc. 1.25 μM, individual repeats, Fig3b): 95.3%
inhibition at 1.563 µM ([2]; Conc. 1.563 μM, individual repeats, Fig3b): 95.7%
%inhibition [2, 11]: 98.9%
inhibition at 2.5 µM [2, 11]: 96.1%
inhibition at 3.125 µM ([2]; Conc. 3.125 μM, individual repeats, Fig3b): 97.1%
%inhibition [2, 12]: 100.8%
inhibition at 5 µM [2, 12]: 96.6%
inhibition at 6.25 µM ([2]; Conc. 6.25 μM, individual repeats, Fig3b): 98.3%
%inhibition [2, 13]: 101.1%
inhibition at 10 µM [2, 13]: 97.4%
inhibition at 12.5 µM ([2]; Conc. 12.5 μM, individual repeats, Fig3b): 97.7%
%inhibition [2, 14]: 101.7%
inhibition at 20 µM [2, 14]: 97%
IC50 ([2]; IC50 Repeat 1, tracer 7): 53.6 nM
IC50 ([2]; IC50 Repeat 2, tracer 7): 54 nM
IC50 ([2]; IC50 Repeat 3, tracer 7): 51.6 nM
IC50 ([2]; IC50 mean, tracer 7, mean of three repeats): 53.1 nM
mean (FP signal, FigS5) ([2]; Repeat 1, Conc. 0.0015 μM): 296.3
mean (FP signal, FigS5) ([2]; Repeat 1, Conc. 0.0031 μM): 295
mean (FP signal, FigS5) ([2]; Repeat 1, Conc. 0.006 μM): 292
mean (FP signal, FigS5) ([2]; Repeat 1, Conc. 0.012 μM): 277.7
mean (FP signal, FigS5) ([2]; Repeat 1, Conc. 0.024 μM): 245
mean (FP signal, FigS5) ([2]; Repeat 1, Conc. 0.049 μM): 202.3
mean (FP signal, FigS5) ([2]; Repeat 1, Conc. 0.098 μM): 113.7
mean (FP signal, FigS5) ([2]; Repeat 1, Conc. 0.195 μM): 106
mean (FP signal, FigS5) ([2]; Repeat 1, Conc. 0.391 μM): 82
mean (FP signal, FigS5) ([2]; Repeat 1, Conc. 0.781 μM): 69
mean (FP signal, FigS5) ([2]; Repeat 1, Conc. 1.563 μM): 61.7
mean (FP signal, FigS5) ([2]; Repeat 1, Conc. 3.125 μM): 58.3
mean (FP signal, FigS5) ([2]; Repeat 1, Conc. 6.25 μM): 55.3
mean (FP signal, FigS5) ([2]; Repeat 1, Conc. 12.5 μM): 56.7
mean (FP signal, FigS5) ([2]; Repeat 2, Conc. 0.0024 μM): 282.7
mean (FP signal, FigS5) ([2]; Repeat 2, Conc. 0.0049 μM): 277.5
mean (FP signal, FigS5) ([2]; Repeat 2, Conc. 0.0098 μM): 267
mean (FP signal, FigS5) ([2]; Repeat 2, Conc. 0.0195 μM): 244.3
mean (FP signal, FigS5) ([2]; Repeat 2, Conc. 0.0391 μM): 199
mean (FP signal, FigS5) ([2]; Repeat 2, Conc. 0.0781 μM): 150.3
mean (FP signal, FigS5) ([2]; Repeat 2, Conc. 0.1563 μM): 108.7
mean (FP signal, FigS5) ([2]; Repeat 2, Conc. 0.3125 μM): 81.7
mean (FP signal, FigS5) ([2]; Repeat 2, Conc. 0.625 μM): 67.7
mean (FP signal, FigS5) ([2]; Repeat 2, Conc. 1.25 μM): 60
mean (FP signal, FigS5) ([2]; Repeat 2, Conc. 2.5 μM): 58
mean (FP signal, FigS5) ([2]; Repeat 2, Conc. 5 μM): 57
mean (FP signal, FigS5) ([2]; Repeat 2, Conc. 10 μM): 55
mean (FP signal, FigS5) ([2]; Repeat 2, Conc. 20 μM): 56
mean (FP signal, FigS5) ([2]; Repeat 3, Conc. 0.0024 μM): 286
mean (FP signal, FigS5) ([2]; Repeat 3, Conc. 0.0049 μM): 286.5
mean (FP signal, FigS5) ([2]; Repeat 3, Conc. 0.0098 μM): 266.5
mean (FP signal, FigS5) ([2]; Repeat 3, Conc. 0.0195 μM): 234
mean (FP signal, FigS5) ([2]; Repeat 3, Conc. 0.0391 μM): 193.7
mean (FP signal, FigS5) ([2]; Repeat 3, Conc. 0.0781 μM): 145.7
mean (FP signal, FigS5) ([2]; Repeat 3, Conc. 0.1563 μM): 111.7
mean (FP signal, FigS5) ([2]; Repeat 3, Conc. 0.3125 μM): 84.3
mean (FP signal, FigS5) ([2]; Repeat 3, Conc. 0.625 μM): 66.3
mean (FP signal, FigS5) ([2]; Repeat 3, Conc. 1.25 μM): 58.7
mean (FP signal, FigS5) ([2]; Repeat 3, Conc. 2.5 μM): 54
mean (FP signal, FigS5) ([2]; Repeat 3, Conc. 5 μM): 49.3
mean (FP signal, FigS5) ([2]; Repeat 3, Conc. 10 μM): 48.7
mean (FP signal, FigS5) ([2]; Repeat 3, Conc. 20 μM): 47.3

COc1ccc(C(=O)N[C@@H](C)C(=O)NCC(=O)N[C@@H](CCC(=O)O)C(=O)N[C@@H](CO)C(=O)N[C@@H](CC(C)C)C(=O)N[C@@H](Cc2ccc(O)cc2)C(=O)N[C@@H](Cc2ccc(C(C)(C)C)cc2)C(N)=O)cc1 [MAI-522] ({Benzoyl(4-OMe)}-AGESLY[Phe(4-tBu)]-NH2)
IC50 ([2]; tracer 7, mean of three repeats, read-out: IC50 mean): 147 nM
IC50 ([2]; tracer 7, read-out: IC50 Repeat 1): 166 nM
IC50 ([2]; tracer 7, read-out: IC50 Repeat 2): 144 nM
IC50 ([2]; tracer 7, read-out: IC50 Repeat 3): 131 nM
